From EP4813403A1, “USE OF GLP-1R/GIPR DOUBLE-TARGET AGONIST IN PREPARING ANIMAL DRUG” (Hangzhou Zhongmeihuadong Pharmaceutical Co., Ltd., priority 2023, dated 2025)

Tests used:
mouse GLP-1R = biological target: T1, mouse GLP-1R (Mus musculus, UniProt O35659); experiment: Agonistic activity on GLP-1R of different species (LANCE Ultra cAMP assay): mouse; type: cell-based; conditions: ratio of EC50 value of other species to human EC50 value
T1 construct: expressed in transfected cells
T1 sequence (O35659 22-463): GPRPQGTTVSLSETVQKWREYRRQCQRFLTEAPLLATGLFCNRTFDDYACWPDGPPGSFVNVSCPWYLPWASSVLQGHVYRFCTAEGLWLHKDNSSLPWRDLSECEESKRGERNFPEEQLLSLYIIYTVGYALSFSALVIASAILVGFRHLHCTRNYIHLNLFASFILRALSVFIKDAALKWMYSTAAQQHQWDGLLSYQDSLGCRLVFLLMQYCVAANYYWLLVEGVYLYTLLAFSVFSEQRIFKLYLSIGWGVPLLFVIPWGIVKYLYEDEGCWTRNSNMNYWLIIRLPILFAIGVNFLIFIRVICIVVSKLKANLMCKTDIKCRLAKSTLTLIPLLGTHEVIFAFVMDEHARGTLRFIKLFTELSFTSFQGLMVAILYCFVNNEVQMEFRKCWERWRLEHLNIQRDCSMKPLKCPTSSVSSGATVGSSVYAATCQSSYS

dog GLP-1R = biological target: T2, dog GLP-1R (Canis lupus familiaris, UniProt A0A8I3NUR9); experiment: Agonistic activity on GLP-1R of different species (LANCE Ultra cAMP assay): dog; type: cell-based; conditions: ratio of EC50 value of other species to human EC50 value
T2 construct: expressed in transfected cells
T2 sequence (A0A8I3NUR9 1-464): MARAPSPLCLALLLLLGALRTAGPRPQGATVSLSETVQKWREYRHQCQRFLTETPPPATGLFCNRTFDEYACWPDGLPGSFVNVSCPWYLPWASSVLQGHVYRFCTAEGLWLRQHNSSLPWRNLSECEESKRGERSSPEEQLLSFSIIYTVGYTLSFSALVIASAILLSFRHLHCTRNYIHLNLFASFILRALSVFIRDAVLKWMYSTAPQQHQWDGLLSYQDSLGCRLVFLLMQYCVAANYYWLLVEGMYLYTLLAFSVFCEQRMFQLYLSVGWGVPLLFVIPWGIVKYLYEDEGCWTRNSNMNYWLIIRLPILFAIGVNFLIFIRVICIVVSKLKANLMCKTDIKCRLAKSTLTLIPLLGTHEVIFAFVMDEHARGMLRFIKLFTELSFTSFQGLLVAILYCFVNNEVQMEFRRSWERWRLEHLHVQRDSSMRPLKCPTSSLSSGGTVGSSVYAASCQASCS
Description: The in vitro agonistic activity of the compound of the present invention on GLP-1R was measured in cells stably expressing human, dog, mouse, rat, rabbit, and monkey GLP-1R (human GLP-1R-HEK, dog GLP-1R-HEK, mouse GLP-1R-HEK, rat GLP-1R- in HEK, rabbit GLP-1R-CHO, monkey GLP-1R-HEK cells). Human GLP-1R-HEK, dog GLP-1R-HEK, mouse GLP-1R-HEK, rat GLP-1R-HEK, rabbit GLP-1R-CHO, and monkey GLP-1R-HEK cells were resuspended in 1×Casein Stimulation Buffer (HBSS, 5 mM HEPES, 0.5 mM IBMX, 0.1% casein, pH7.4), and seeded into a 384-well cell culture plate at 9 µL/well (cell numbers being 1000, 1000, 1000, 1500, 1000, 1000 cells/well, respectively). 1 µL of 1×Casein Stimulation Buffer containing 10× compound was added to the above-mentioned 384-well cell culture plate. The plate was incubated at 37 °C for 30 minutes. After the incubation was completed, 5 µL of Eu-cAMP working solution and 5 µL of Ulight^TM-cAMP working solution were added sequentially, centrifuged and then incubated at room temperature for 1 hour. The readings at 665 nm and 620 nm were determined with a 330 nm excitation light on a microplate reader. The 665 nm/620 nm reading ratio was calculated. […] GraphPad was used to perform nonlinear regression according to the response percentage and the concentration of the compound added to obtain the EC50 value for each compound.

CC[C@H](C)[C@H](NC(=O)C(C)(C)NC(=O)[C@H](Cc1ccc(O)cc1)NC(=O)[C@H](CC(=O)O)NC(=O)[C@H](CO)NC(=O)[C@@H](NC(=O)C(C)(Cc1ccccc1)NC(=O)[C@@H](NC(=O)CNC(=O)[C@H](CCC(=O)O)NC(=O)C(C)(C)NC(=O)[C@@H](N)Cc1ccc(O)cc1)[C@@H](C)O)[C@@H](C)O)C(=O)NC(C)(C)C(=O)N[C@@H](CC(C)C)C(=O)N[C@@H](CC(=O)O)C(=O)N[C@@H](CCCCN)C(=O)N[C@@H](CCC(N)=O)C(=O)N[C@@H](C)C(=O)N[C@@H](CCC(N)=O)C(=O)N[C@@H](C)C(=O)N[C@@H](CCC(=O)O)C(=O)N[C@@H](Cc1ccccc1)C(=O)N[C@H](C(=O)N[C@@H](CCCCNC(=O)COCCOCCNC(=O)COCCOCCNC(=O)COCCOCCNC(=O)CC[C@H](NC(=O)CCCCCCCCCCCCCCCCCCCCC(=O)O)C(=O)O)C(=O)N[C@@H](Cc1c[nH]c2ccccc12)C(=O)N[C@@H](CC(C)C)C(=O)N[C@@H](CC(C)C)C(=O)N[C@@H](CCCCN)C(=O)NCC(=O)NCC(=O)N1CCC[C@H]1C(=O)N[C@@H](CO)C(=O)N[C@@H](CO)C(=O)NCC(=O)N[C@@H](C)C(=O)N1CCC[C@H]1C(=O)N1CCC[C@H]1C(=O)N1CCC[C@H]1C(=O)N[C@@H](CO)C(=O)N[C@@H](CCCCN)C(N)=O)C(C)C (some centres unmarked) [Compound P016]
GLP-1R EC50 ratio (mouse GLP-1R): 1.09
GLP-1R EC50 ratio (dog GLP-1R): 4.52
